How the values were obtained:
[1] = tested on: mouse melanoma cell B16F10; assay: Inhibitory effect on melanin production in α-MSH-stimulated B16F10 cells; assay type: cell-based; settings: B16F10, 200 ng/ml α-MSH, peptide 10, 50, 100 or 200 μM, 72 hours, absorbance at 450 nm
Procedure: A mouse melanoma cell B16F10 was seeded in a 6-well plate at a density of 5×10^4 cells/well, followed by incubation for 16 hours. Thereafter, the culture medium was replaced by a medium supplemented with 2% serum, and then 200 ng/ml of α-melanocyte-stimulating hormones (α-MSH) was added thereto to stimulate melanin production, together with each peptide of an amino acid sequence of SEQ ID NO: 1, 2, or 3 at a concentration of 10 μM, 50 μM, 100 μM, or 200 μM, respectively, followed by incubation for 72 hours. Thereafter, the incubated cells were dissolved in 1 N NaOH, and absorbance at 450 nm was measured. Moreover, an untreated group (Con) was used as a control, and only an α-MSH-treated group as a negative control and a known skin-whitening agent Arbutin (200 μM, 500 μM) and an α-MSH-treated group as a positive control were used.

tyrosinase [2] = assay: Expression of melanin production-associated protein (Western blotting) in B16F10 cells; assay type: cell-based, mouse; settings: B16F10, 200 ng/ml α-MSH, peptide 10-200 μM, 72 hours
Procedure: (§1) A mouse melanoma cell B16F10 was seeded in a 6-well plate at a density of 5×10^4 cells/well, followed by incubation for 16 hours. Thereafter, the culture medium was replaced by a medium supplemented with 2% serum, and then 200 ng/ml of α-MSH was added thereto, together with each peptide of an amino acid sequence of SEQ ID NO: 1, 2, or 3 at a concentration of 10 μM, 50 μM, 100 μM, or 200 μM, respectively, followed by incubation for 72 hours. Thereafter, the cultured cells were lysed, and then subjected to Western blotting using antibodies (santacruz biotechnology, USA) against Mlph, Rab27a, Tyrosinase, MITF, and TRP-1. In addition, a control, a negative control, and a positive control were used in the same manner as in Example 2.

MITF [3] = assay: as above; assay type: cell-based, mouse; settings: B16F10, 200 ng/ml α-MSH, peptide 10-200 μM, 72 hours
Procedure: as §1

TRP-1 = assay: as above; assay type: cell-based, mouse; settings: B16F10, 200 ng/ml α-MSH, peptide 10-200 μM, 72 hours
Procedure: as §1

tyrosinase [4] = target: T1, tyrosinase (Mus musculus, UniProt P11344); assay: Inhibitory effect on tyrosinase activity in lysate of treated B16F10 cells (L-DOPA); assay type: cell-based; settings: B16F10, 200 ng/ml α-MSH, peptide 1-160 μM, 72 hours, absorbance at 475 nm
T1 construct: The cells were lysed by adding a 0.1 M sodium phosphate buffer (pH 6.8, lysis buffer) containing 1% triton X-100; endogenous in cells; host or cells: B16F10 mouse melanoma cells stimulated with alpha-MSH
T1 sequence (P11344 19-533): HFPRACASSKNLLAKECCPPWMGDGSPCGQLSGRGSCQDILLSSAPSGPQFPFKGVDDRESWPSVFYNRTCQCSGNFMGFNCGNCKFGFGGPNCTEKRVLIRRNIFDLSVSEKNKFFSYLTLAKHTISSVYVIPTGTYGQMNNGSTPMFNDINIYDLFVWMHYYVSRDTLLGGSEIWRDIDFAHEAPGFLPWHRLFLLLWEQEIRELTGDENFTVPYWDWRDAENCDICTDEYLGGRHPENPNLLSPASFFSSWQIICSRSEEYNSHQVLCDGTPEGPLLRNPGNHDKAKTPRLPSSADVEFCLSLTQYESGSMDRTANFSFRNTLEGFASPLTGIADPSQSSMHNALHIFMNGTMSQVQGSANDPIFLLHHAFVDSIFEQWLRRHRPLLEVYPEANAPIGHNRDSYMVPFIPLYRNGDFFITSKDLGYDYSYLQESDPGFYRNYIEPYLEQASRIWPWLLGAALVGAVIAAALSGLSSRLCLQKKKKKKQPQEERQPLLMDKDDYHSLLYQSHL
Procedure: A mouse melanoma cell B16F10 was seeded in a 6-well plate at a density of 5×10^4 cells/well, followed by incubation for 16 hours. Thereafter, the culture medium was replaced by a medium supplemented with 2% serum, and then 200 ng/ml of α-MSH was added thereto, together with each peptide of an amino acid sequence of SEQ ID NO: 1, 2, or 3 at a concentration of 1 μM, 10 μM, 20 μM, 40 μM, 60 μM, 80 μM or 160 μM, respectively, followed by incubation for 72 hours. The 6-well plate was placed on ice, and then washed with cold PBS. The cells were lysed by adding a 0.1 M sodium phosphate buffer (pH 6.8, lysis buffer) containing 1% triton X-100. Thereafter, the cells in the well plate were scraped, and collected in a 1.5 ml tube, followed by vortexing. Centrifugation was carried out at 15,000 rpm for 10 minutes to obtain a supernatant. Thereafter, proteins in the supernatant was quantified to adjust the protein content at a predetermined amount. A buffer was added thereto, and total 90 μl of the sample was dispensed in a 96-well plate.
Thereafter, 20 μL of 10 mM L-DOPA was added to each sample, and incubated at 37° C. for 1 hour. Then, absorbance at 475 nm was measured. In addition, an untreated group (Con) was used as a control, and only α-MSH-treated group as a negative control and Arbutin (200 μM or 500 μM) and α-MSH-treated group as a positive control were used.

tyrosinase [5] = assay: Expression of melanin production-associated gene (RT-PCR) in B16F10 cells; assay type: cell-based, mouse; settings: B16F10, 200 ng/ml α-MSH, peptide 10-200 μM, 72 hours
Procedure: (§2) A mouse melanoma cell B16F10 was seeded in a 6-well plate at a density of 5×10^4 cells/well, followed by incubation for 16 hours. Thereafter, the culture medium was replaced by a medium supplemented with 2% serum, and then 200 ng/ml of α-MSH was added thereto, together with each peptide of an amino acid sequence of SEQ ID NO: 1, 2, or 3 at a concentration of 10 μM, 50 μM, 100 μM, or 200 μM, respectively, followed by incubation for 72 hours. mRNAs were extracted from the cultured cells, and the extracted mRNAs were reverse transcribed using a cDNA synthesis kit & PCR pre-mix (Intron, Korea), thereby synthesizing cDNA, respectively. Thereafter, a polymerase chain reaction (PCR) was carried out using each cDNA and Rab27a, Melanophilin (Mlph), myosin VA, MITF, Tyrosinase, and TRP1 primers. Moreover, a control, a negative control, and a positive control were used in the same manner as in Example 2, and nucleotide sequences of the primers used herein are the same as in Table 3 below.

MITF [6] = assay: as above; assay type: cell-based, mouse; settings: B16F10, 200 ng/ml α-MSH, peptide 10-200 μM, 72 hours
Procedure: as §2

Mlph [7] = assay: as above; assay type: cell-based, mouse; settings: B16F10, 200 ng/ml α-MSH, peptide 10-200 μM, 72 hours
Procedure: as §2

Rab27a [8] = assay: Expression of melanin production-associated protein (Western blotting) in B16F10 cells; assay type: cell-based, mouse; settings: B16F10, 200 ng/ml α-MSH, peptide 10-200 μM, 72 hours
Procedure: as §1

Mlph [9] = assay: as above; assay type: cell-based, mouse; settings: B16F10, 200 ng/ml α-MSH, peptide 10-200 μM, 72 hours
Procedure: as §1

myosin VA = assay: Expression of melanin production-associated gene (RT-PCR) in B16F10 cells; assay type: cell-based, mouse; settings: B16F10, 200 ng/ml α-MSH, peptide 10-200 μM, 72 hours
Procedure: as §2

Rab27a [10] = assay: as above; assay type: cell-based, mouse; settings: B16F10, 200 ng/ml α-MSH, peptide 10-200 μM, 72 hours
Procedure: as §2

TRP1 = assay: as above; assay type: cell-based, mouse; settings: B16F10, 200 ng/ml α-MSH, peptide 10-200 μM, 72 hours
Procedure: as §2

For FHFIPNW [SEQ ID NO: 2], the melanin production [1] was “reduced in a concentration-dependent manner”, the “expression of Tyrosinase protein” value (tyrosinase [2]) was “inhibited” and the “expression of MITF protein” value (MITF [3]) was “inhibited”. For the same substance, the “expression of TRP-1 protein” value (TRP-1) was “inhibited”, the tyrosinase activity (tyrosinase [4]) was “inhibited in a concentration-dependent manner” and the “expression of tyrosinase gene” value (tyrosinase [5]) was “inhibited”. For the same substance, the “expression of MITF gene” value (MITF [6]) was “inhibited” and the “expression of Mlph gene” value (Mlph [7]) was “inhibited”.

For LRKRKRRFWVL [SEQ ID NO: 1], the melanin production [1] was “reduced in a concentration-dependent manner”, the “expression of Rab27a protein” value (Rab27a [8]) was “inhibited” and the “expression of Tyrosinase protein” value (tyrosinase [2]) was “inhibited”. The “expression of MITF protein” value (MITF [3]) was “inhibited”, the “expression of Mlph protein” value (Mlph [9]) was “inhibited” and the tyrosinase activity (tyrosinase [4]) was “inhibited in a concentration-dependent manner”. The “expression of myosin VA gene” value (myosin VA) was “inhibited”, the “expression of Rab27a gene” value (Rab27a [10]) was “inhibited” and the “expression of tyrosinase gene” value (tyrosinase [5]) was “inhibited”. The “expression of MITF gene” value (MITF [6]) was “inhibited” and the “expression of TRP1 gene” value (TRP1) was “inhibited”.

In the case of WPFLRP [SEQ ID NO: 3], the melanin production [1] is reported as “reduced in a concentration-dependent manner”, the “expression of Rab27a protein” value (Rab27a [8]) is reported as “inhibited” and the “expression of Tyrosinase protein” value (tyrosinase [2]) is reported as “inhibited”. For the same substance, the “expression of MITF protein” value (MITF [3]) was “inhibited”, the “expression of Mlph protein” value (Mlph [9]) was “inhibited” and the tyrosinase activity (tyrosinase [4]) was “inhibited in a concentration-dependent manner”. The “expression of myosin VA gene” value (myosin VA) was “inhibited”, the “expression of Rab27a gene” value (Rab27a [10]) was “inhibited” and the “expression of tyrosinase gene” value (tyrosinase [5]) was “inhibited”. For the same substance, the “expression of MITF gene” value (MITF [6]) was “inhibited”, the “expression of Mlph gene” value (Mlph [7]) was “inhibited” and the “expression of TRP1 gene” value (TRP1) was “inhibited”.

From US11654097B2, “Peptide having activities of skin whitening and uses thereof” (CAREGEN CO., LTD., priority 2019, dated 2023)
